In patent US10307371B2 (AI Therapeutics, Inc., priority 2014, dated 2019):
“And” between values parts separate entries of the source, which are not always exact repeats. Equal values may be shown once. “Also recorded” adds a separate entry of the source.

Columns and labels:
[1] = system: mTOR; test: S6 phosphorylation in mouse lung as biomarker for mTOR activity; conditions: lung tissue
Text: To validate this approach, we used the presence of phosphorylated S6 protein in murine lung tissue as a biomarker for mTOR activity.

[2] = oral, 12 months, cited from earlier work
[3] = Particle size distribution by laser diffraction after jet milling or wet polishing; assay type: physicochemical
Experimental: For jet milling, a lab scale MCOne unit from Jetpharma was used with the following operating conditions: venturi pressure 2-4 bar, milling pressure 3-5 bar, feed rate 90 g/h. For wet polishing, feed suspensions were prepared using purified water. A microfluidics high pressure homogenizer was used for the size reduction step and the resulting suspension was spray-dried. Details of the wet polishing process are set forth below.
The high pressure homogenizer used for the size reduction step of the wet polishing process was a pilot-scale Microfluidics High Pressure Homogenizer equipped with an auxiliary processing module (200 micron) and a 100 micron interaction chamber was used. The unit was operated at ˜455 bar (˜30 bar in the intensifier module hydraulic pressure). After microfluidization the fluid was removed by spray drying to generate a dry powder. A laboratory scale spray dryer, SD45 (BÜCHI, model B-290 Advanced) was equipped with a two fluid nozzle (cap and diameter were 1.4 and 0.7 mm, respectively). Two cyclones in series were used (being the first the standard Buchi cyclone and the second the high-performance Buchi cyclone) to collect the dried product. The spray drying unit was operated with nitrogen and in single pass mode, i.e. without recirculation of the drying nitrogen. The aspirator, blowing nitrogen, was set at 100% of its capacity (flow rate at maximum capacity is approximately 40 kg/h). The flow rate of the atomization nitrogen was adjusted to a value in the rotameter of 40±5 mm. Before feeding the product suspension, the spray dryer was stabilized with purified water, during which the flow rate was adjusted to 6 ml/min (20% in the peristaltic pump). The inlet temperature was adjusted to achieve the target outlet temperature (45° C.). After stabilization of the temperatures, the feed of the spray dryer was commuted from purified water to the product suspension (keeping the same flow rate used during stabilization) and the inlet temperature once again adjusted in order to achieve the target outlet temperature. At the end of the stock suspension, the feed was once more commuted to purified water in order to rinse the feed line and perform a controlled shut down. The dry product in the collection flasks under both cyclones was weighed and the yield calculated as the mass percentage of the dry product in relation to the total solids in the suspension fed to the high pressure homogenizer.
Particle size distribution was analyzed by laser diffraction. Solid state characterization (for polymorphic form and purity) was performed by high pressure liquid chromatography (HPLC), X-ray powder diffraction (XRPD), and differential scanning calorimetry (mDSC). Water content was determined by the Karl Fischer method.

[4] = system: angiomyolipomas; conditions: oral, 20 patients, cited from earlier work
[5] = system: renal angiomyolipomas; conditions: oral, 16 patients, cited from earlier work
[6] = Observation for adverse effects / clinical signs after OPA or gavage dosing
Experimental: An additional group of 6 mice received vehicle only (10% ethanol in water). […] At the 72-h necropsy, blood was obtained by cardiac puncture and the lungs removed.
The weight of dose solution administered was determined by weighing the charged syringe with dose solution prior to dosing, and weighing following dosing. […] The time of dosing was recorded as 0. Animals in groups 2 and 3 were euthanized at 1 h after dosing.

[7] = study of 10 LAM patients; cited from earlier work
[8] = cited from earlier work
[9] = human, cited from earlier work
[10] = Concentration of rapamycin in blood and lung after oropharyngeal aspiration (OPA) or oral gavage, LC-MS/MS; assay type: in vivo, C57BL/6 mice; conditions: 1 mg/kg
Experimental: Each animal was weighed prior to dosing to determine the amount of dose to be administered. A single gavage dose was administered using a 100-μL glass syringe (Hamilton, Reno, Nev.) fitted with a ball-tipped 20-G stainless steel gavage dosing needle (Popper & Sons Inc., New Hyde Park, N.Y.). The dose administered to each animal was determined from the weight of the full syringe minus that of the empty syringe. The dosing time was recorded. Dosing of animals was spaced apart to allow blood collection at the appropriate times. The dose formulations administered to each group are shown below.
Each mouse was anesthetized with isoflurane, and restrained with the mouth open. The tongue was held to one side of the mouth with forceps, and the dose was slowly injected into the distal part of the oral cavity. The nostrils were covered with a finger for two breaths to ensure aspiration (Rao et al., 2003).
Collection of Blood and Lung Samples: At study termination (1 or 72 h after dosing), mice were anesthetized by exposure to CO2, and blood was collected by cardiac puncture with dipotassium EDTA as anticoagulant. Lung tissue was excised and divided into the right and left lung. The left lung was used for analysis, and the right lung flash frozen in liquid nitrogen and stored at −70° C. for further analysis.
Triamcinolone was used as internal standard.
Lung homogenate was prepared by homogenization of weighed lung samples with 2.8-mm ball bearings in a homogenizer with tissue+deionized water (1:3 w/v) in a SPEX SamplePrep 2010 Geno/Grinder.
The concentrations of standards were arranged so that each standard came from an alternate stock standard. A six-point calibration curve, each made in triplicate, was employed for analyte quantitation. A simple linear regression model with or without weighting was employed for curve fitting. The concentration range determined was from 1-2000 ng/mL in blood and 2-2000 ng/mL in lung homogenate.
Thirty (30) μL of matrix, 30 μL of spiking solution (methanol for blanks and samples), 10 μL Internal standard solution (in MeOH) and 90 μL of MeOH were pipetted into microcentrifuge tubes, vortexed briefly, then centrifuged for 6 min at 10,000 RPM at ˜4° C. Aliquots (90 μL) of supernatant were transferred to LC vial inserts, and then analyzed by LC-MS/MS (Table 2).

[11] = cancer patients administered temsirolimus or everolimus; cited from earlier work
[12] = Gavage (Rapamune Oral), 1 h post-dose, individual animals
[13] = OPA, 1 h post-dose, individual animals
[14] = OPA, 72 h post-dose, individual animals

SMILES: CO[C@H]1C[C@@H]2CC[C@@H](C)[C@@](O)(O2)C(=O)C(=O)N2CCCC[C@H]2C(=O)O[C@H]([C@H](C)C[C@@H]2CC[C@@H](O)[C@H](OC)C2)CC(=O)[C@H](C)/C=C(\C)[C@@H](O)[C@@H](OC)C(=O)[C@H](C)C[C@H](C)/C=C/C=C/C=C/1C [Rapamycin, (3S,6R,7E,9R,10R,12R,14S,15E,17E,19E,21S,23S,26R,27R,34aS)-9,10,12,13, -14,21,22,23,24,25,26,27,32,33,34,34a-hexadecahydro-9,27-dihydroxy-3-[(1R)-2-[(1S,3R,4R)-4-hydroxy-3-methoxycyclohexyl]-1-methylethyl]-10,21-dimethox-y-6,8,12,14,20,26-hexamethyl-23,27-epoxy-3H-pyrido[2,1-c][1,4]oxaazacyclohentriacontine-1,5,11,28,29(4H,6H,31H)-pentone]
- Drug level in the lung that substantially abrogates mTOR signaling (pS6) [1]: about 70 ng/g
- Lung function ([2]; blood levels 5-15 ng/ml): stabilized lung function
- Serum VEGF-D levels ([2]; blood levels 5-15 ng/ml): reduced serum VEGF-D levels
- Blood levels at which patients were maintained [2]: 5 to 15 ng/mL
- PSD Dv10 ([3]; jet milling): 1.5 μm and 1.51 μm
- PSD Dv50 ([3]; jet milling): 2.7 μm and 2.74 μm
- PSD Dv90 ([3]; jet milling): 4.9 μm and 4.91 μm
- PSD Dv10 ([3]; wet polishing): 1.0 μm and 1.05 μm
- PSD Dv50 ([3]; wet polishing): 2.4 μm and 2.42 μm
- PSD Dv90 ([3]; wet polishing): 5.0 μm and 4.97 μm
- Serious adverse events ([4]; 24 months): diarrhea, pneumonia, pyelonephritis, cellulitis (from an animal bite), stomatitis, and hemorrhage of a renal angiomyolipoma
- Angiomyolipoma response ([4]; during the treatment period): regressed “somewhat”
- Renal angiomyolipoma response ([5]; up to 2 years): sustained regression of renal angiomyolipomas
- Steady state blood levels ([5]; up to 2 years): 3 to 10 ng/mL
- Adverse events [5]: oral mucositis, respiratory infections, and proteinuria
- Clinical signs ([6]; OPA or gavage, 1 mg/kg, up to 72 h after dosing, all groups): No significant clinical signs were observed
- Adverse effects ([6]; OPA, 1 mg/kg, 72 h period following dosing): No adverse effects were observed
- Acute toxicity to lung tissue ([6]; relatively high amounts delivered directly to lung (OPA, 1 mg/kg)): not acutely toxic to lung tissue
- Patients discontinued because of serious recurrent lower respiratory tract infection or sirolimus-induced pneumonitis [7]: 3 patients
- Chemical stability of the amorphous form [8]: extremely chemically unstable
- Volume of distribution ([9]; Rapamune NDA 21-110 and 21-083): 780 L
- Elimination half-life ([9]; assuming equivalency to rapamycin IV dosing): 42.3 h
- Blood [10, 12]: 49.85 ng/mL and 11.3 ng/mL and 28.7 ng/mL and 28.35 ng/mL and 2.845 ng/mL and 19.35 ng/mL
- Lung (ng/g tissue) [10, 12]: 109.8 ng/g tissue and 24.66 ng/g tissue and 122.8 ng/g tissue and 54 ng/g tissue and <LOQ and 43 ng/g tissue
- Blood [10, 13]: 622 ng/mL and 364.5 ng/mL and 937 ng/mL and 848.5 ng/mL and 615.5 ng/mL and 455.5 ng/mL
- Lung (ng/g tissue) [10, 13]: 4500 ng/g tissue and 1874 ng/g tissue and 4006 ng/g tissue and 4700 ng/g tissue and 5040 ng/g tissue and 2642 ng/g tissue
- Rapamycin in blood, group statement ([10]; OPA, 72 h post-dose): below the limit of quantitation; also recorded: undetectable
- Blood (ng/ml) [10, 14]: <ELOQ
- Lung (ng/g tissue) [10, 14]: 11.4 ng/g tissue and 15.7 ng/g tissue and 10.8 ng/g tissue and 11.9 ng/g tissue and 13.6 ng/g tissue
- Rapamycin in blood ([10]; oral (gavage), 72 hrs): undetectable
- Rapamycin in lung ([10]; oral (gavage), 72 hrs): undetectable

SMILES: CO[C@H]1C[C@@H]2CC[C@@H](C)[C@@](O)(O2)C(=O)C(=O)N2CCCC[C@H]2C(=O)O[C@H]([C@H](C)C[C@@H]2CC[C@@H](OCCO)[C@H](OC)C2)CC(=O)[C@H](C)/C=C(\C)[C@@H](O)[C@@H](OC)C(=O)[C@H](C)C[C@H](C)/C=C/C=C/C=C/1C [everolimus]
- Cancer patients who may experience mild grade pulmonary toxicity [11]: 10%

SMILES: CO[C@H]1C[C@@H]2CC[C@@H](C)[C@@](O)(O2)C(=O)C(=O)N2CCCC[C@H]2C(=O)O[C@H]([C@H](C)C[C@@H]2CC[C@@H](OC(=O)C(C)(CO)CO)[C@H](OC)C2)CC(=O)[C@H](C)/C=C(\C)[C@@H](O)[C@@H](OC)C(=O)[C@H](C)C[C@H](C)/C=C/C=C/C=C/1C [temsirolimus]
- Cancer patients who may experience mild grade pulmonary toxicity [11]: 10%
